Broadly, the IC50 is the midpoint of a concentration-inhibition curve. Usually solubility stands for the concentration that dissolves in the medium under given conditions. A lower solubility goes with a poorly soluble substance. What is called melting point is the temperature of the solid-liquid transition.

Results on 17 molecules are retold here after PMC8272121, “Synthesis and Evaluation of Chalcone-Quinoline Based Molecular Hybrids as Potential Anti-Malarial Agents” (Molecules, 2021).

For data set [1], the system named is P. falciparum NF54 (drug-sensitive strain). In words: In vitro antiplasmodial assay (parasite lactate dehydrogenase), chloroquine-sensitive NF54 strain. Particulars: sensitive (NF54) strain of P. falciparum, pLDH assay, 48 h, mean of ≥2 independent experiments, read-out: PfNF54 IC50. It is filed as cell-based, Plasmodium falciparum. Here is the method: All the synthesized molecular hybrids (6–27) were evaluated for in vitro antiplasmodial activity against the drug-sensitive strain (NF54) of P. falciparum and for cytotoxicity against the Chinese Hamster Ovary (CHO) mammalian cell line using emetine as a reference drug. Aqueous solubility was determined at pH 6.5 (Table 2).
In-vitro anti-plasmodium assay. Compounds were tested using parasite lactate dehydrogenase assay as a marker for parasite survival. The respective stock solutions of CQ diphosphate and test compounds were prepared by dissolving 2 mg/mL in distilled water (for CQ) and 100% DMSO for test compounds. The solutions were then stored at −20 °C, with further dilutions prepared on the day of the experiment. The cultures were synchronized in the ring stage as described previously using 15 mL of 5% (w/v) d-sorbitol in water. Synchronous cultures of PfNF54 (CQS) in the late trophozoite stage were prepared to 2% parasitemia and 2% hematocrit. […] Following incubation, 100 μL of MalStat reagent and 15 μL of resuspended culture were combined, followed by addition of 25 μL of nitro blue tetrazolium chloride (NBT). The plates were kept in the dark for about 10 min to fully develop, and absorbance was measured at 620 nm on a microplate reader. Raw data were exported to Microsoft Excel for dose-response analysis.

Data set [2] is described as follows: Aqueous solubility, miniaturized shake flask method (HPLC-DAD). Particulars: aqueous solution, aqueous buffer, thermodynamic from solid, pH 6.5, shake flask 20 h, 25 °C. It is filed as physicochemical. Here is the method:
All the synthesized molecular hybrids (6-27) were evaluated for in vitro antiplasmodial activity against the drug-sensitive strain (NF54) of P. falciparum and for cytotoxicity against the Chinese Hamster Ovary (CHO) mammalian cell line using emetine as a reference drug. Aqueous solubility was determined at pH 6.5 (Table 2). Aqueous solubility. Water solubility was analyzed using a miniaturized shake flask method. Ten millimolar stock solutions of each of the compounds were used to prepare calibration standards (10-220 μM) in DMSO. The same 10 mM stock solutions were accurately dispensed in duplicate into 96-well plates, and the DMSO, dried down ([…],90 min, 37 °C). Thereafter, the samples were reconstituted (200 μM) in an aqueous solution and shaken (20 h, 25 °C). The solutions were analyzed by means of HPLC-DAD (Agilent1200 Rapid Resolution HPLC with a diode array detector). Best fit calibration curves were constructed using the calibration standards, which were used to determine the aqueous samples' solubility.

For data set [3], the system named is Chinese Hamster Ovary (CHO) mammalian cell line. The data set is described as follows: Cytotoxicity MTT assay on CHO cells. It is filed as cell-based. Particulars: for IC50: Cricetulus griseus, CHO, Chinese hamster ovarian cell line, MTT, 48 h; for SI (selectivity index): SI = IC50 (CHO)/IC50 (PfNF54). Here is the method: All the synthesized molecular hybrids (6–27) were evaluated for in vitro antiplasmodial activity against the drug-sensitive strain (NF54) of P. falciparum and for cytotoxicity against the Chinese Hamster Ovary (CHO) mammalian cell line using emetine as a reference drug. Aqueous solubility was determined at pH 6.5 (Table 2). Cytotoxicity assay. […] The reference standard, emetine, was prepared to 2 mg/mL in distilled water while stock solutions of test compounds were prepared to 20 mg/mL in 100% DMSO with the highest concentration of solvent to which the cells were exposed having no measurable effect on the cell viability. The initial concentration of the compounds and control was 100 μg/mL, which was serially diluted in complete medium with 10-fold dilutions to give six concentrations, the lowest being 0.001 μg/mL. Plates were incubated for 48 h with 100 μL of drug and 100 μL of cell suspension in each well and developed afterward by adding 25 μL of sterile MTT (Thermo Fisher Scientific) to each well, followed by 4 h of incubation in the dark. The plates were then centrifuged; the medium was aspirated, and 100 μL of DMSO was added to dissolve crystals before reading the absorbance at 540 nm. Data were analyzed, and the sigmoidal dose-response was derived using GraphPad Prism v 4.0 software (La Jolla). All experiments were performed for at least three independent biological repeats, each with technical triplicates.
A general note: Tetrazolium assays rely on reduction of a dye to a coloured formazan, in cell work by metabolically active cells.

In brackets after ≈: the same amount, converted by molar mass. Read-outs that look alike come from different tables or passages of the source.

As to `CC(=O)c1ccc(S(=O)(=O)NCCNc2ccnc3cc(Cl)ccc23)cc1` [Compound 4, 4-acetyl-N-(2-((7-chloroquinolin-4-yl)amino)ethyl)benzenesulfonamide], the melting point fell in the range of 200 to 204 °C. For the same molecule, the half-maximal inhibitory concentration (IC50) in data set [1] (Plasmodium falciparum) was found to be 450 nM. The molecule also had a solubility at 20 h in data set [2] of 200 µM (≈ 80.8 µg/mL). Besides, in data set [3], the IC50 was found to be 26300 nM and the “SI (selectivity index)” value is 58.4.
Taken in the same sequence, the figures for `CC(=O)c1ccc(S(=O)(=O)NCCCNc2ccnc3cc(Cl)ccc23)cc1` [Compound 5, 4-acetyl-N-(3-((7-chloroquinolin-4-yl)amino)propyl)benzenesulfonamide] were 181 to 183 °C, 480 nM, less than 5 µM, more than 50000 nM and more than 104.
In the case of `O=C(C=Cc1ccccc1)c1ccc(S(=O)(=O)NCCCNc2ccnc3cc(Cl)ccc23)cc1` [Compound 6, N-(3-((7-chloroquinolin-4-yl)amino)propyl)-4-cinnamoylbenzenesulfonamide], the melting point fell in the range of 210 to 212 °C. Further, in data set [1] (Plasmodium falciparum), the concentration for half-maximal inhibition (IC50) came to 1670 nM. In addition, in data set [3], the half-maximal inhibitory concentration (IC50) is more than 50000 nM and the “SI (selectivity index)” value is on record as more than 29.
The molecule `Cc1ccc(/C=C/C(=O)c2ccc(S(=O)(=O)NCCCNc3ccnc4cc(Cl)ccc34)cc2)cc1` [Compound 7, (E)-N-(3-((7-chloroquinolin-4-yl)amino)propyl)-4-(3-(p-tolyl)acryloyl)benzenesulfonamide] returned a melting point of 209 to 213 °C. Further, the IC50 in data set [1] (Plasmodium falciparum) is 370 nM. In data set [2], this molecule gave a solubility at 20 h of 130 µM (≈ 67.6 µg/mL). For the same molecule, in data set [3], inhibition was half-maximal at 25100 nM (IC50) and the “SI (selectivity index)” value was determined as 67.8.
Molecule `O=C(/C=C/c1ccc(F)cc1)c1ccc(S(=O)(=O)NCCCNc2ccnc3cc(Cl)ccc23)cc1` [Compound 9, (E)-N-(3-((7-chloroquinolin-4-yl)amino)propyl)-4-(3-(4-fluorophenyl)acryloyl)benzenesulfonamide] yielded a melting point of 216 to 218 °C. Further, in data set [1] (Plasmodium falciparum), the IC50 amounted to 280 nM. The same molecule registered a solubility at 20 h in data set [2] of less than 5 µM. Further, in data set [3], the concentration for half-maximal inhibition (IC50) amounted to 14600 nM and the “SI (selectivity index)” value was determined as 52.5.
Taken in the same sequence, the figures for `O=C(/C=C/c1c(F)cccc1F)c1ccc(S(=O)(=O)NCCCNc2ccnc3cc(Cl)ccc23)cc1` [Compound 10, (E)-N-(3-((7-chloroquinolin-4-yl)amino)propyl)-4-(3-(2,6-difluorophenyl)acryloyl)benzenesulfonamide] were 223 to 225 °C, 540 nM, less than 5 µM, 27600 nM and 51.1.
Taken in the same sequence, the figures for `O=C(/C=C/c1ccc(F)c(F)c1)c1ccc(S(=O)(=O)NCCCNc2ccnc3cc(Cl)ccc23)cc1` [Compound 13, (E)-N-(3-((7-chloroquinolin-4-yl)amino)propyl)-4-(3-(3,4-difluorophenyl)acryloyl)benzenesulfonamide] were 212 to 214 °C, 2580 nM, less than 5 µM, more than 300000 nM and more than 116.
`COc1ccc(/C=C/C(=O)c2ccc(S(=O)(=O)NCCCNc3ccnc4cc(Cl)ccc34)cc2)cc1OC` [Compound 14, (E)-N-(3-((7-chloroquinolin-4-yl)amino)propyl)-4-(3-(3,4-dimethoxyphenyl)acryloyl)benzenesulfonamide] displayed a melting point of 222 to 224 °C. The IC50 in data set [1] (Plasmodium falciparum) amounted to 320 nM. Further, in data set [3], the concentration for half-maximal inhibition (IC50) was found to be 43400 nM and the “SI (selectivity index)” value was 135.6.
In turn, `O=C(/C=C/c1ccccc1F)c1ccc(S(=O)(=O)NCCCNc2ccnc3cc(Cl)ccc23)cc1` [Compound 15, (E)-N-(3-((7-chloroquinolin-4-yl)amino)propyl)-4-(3-(2-fluorophenyl)acryloyl)benzenesulfonamide] yielded a melting point of 223 to 225 °C. Further, the 50% inhibitory concentration (IC50) in data set [1] (Plasmodium falciparum) is 860 nM. This molecule also came in with a solubility at 20 h in data set [2] of 5 µM (≈ 2.62 µg/mL). For the same molecule, in data set [3], the midpoint of inhibition, the IC50, lay at 45500 nM and the “SI (selectivity index)” value is given as 52.9.
The corresponding values for `COc1cc(/C=C/C(=O)c2ccc(S(=O)(=O)NCCCNc3ccnc4cc(Cl)ccc34)cc2)cc(OC)c1OC` [Compound 16, (E)-N-(3-((7-chloroquinolin-4-yl)amino)propyl)-4-(3-(3,4,5-trimethoxyphenyl)acryloyl)benzenesulfonamide] are 197 to 200 °C, 580 nM, 15 µM (≈ 8.94 µg/mL), 22600 nM and 39.0.
The molecule `COc1ccc(/C=C/C(=O)c2ccc(S(=O)(=O)NCCNc3ccnc4cc(Cl)ccc34)cc2)cc1` [Compound 17, (E)-N-(2-((7-chloroquinolin-4-yl)amino)ethyl)-4-(3-(4-methoxyphenyl)acryloyl)benzenesulfonamide] had a melting point of 222 to 225 °C. Besides, the IC50 in data set [1] (Plasmodium falciparum) is 490 nM. This molecule also returned a solubility at 20 h in data set [2] of 185 µM (≈ 96.6 µg/mL). In data set [3], the IC50 amounted to 17500 nM and the “SI (selectivity index)” value was determined as 35.7.
Regarding `O=C(/C=C/c1ccc(F)cc1F)c1ccc(S(=O)(=O)NCCCNc2ccnc3cc(Cl)ccc23)cc1` [Compound 18, (E)-N-(3-((7-chloroquinolin-4-yl)amino)propyl)-4-(3-(2,4-difluorophenyl)acryloyl)benzenesulfonamide], the melting point lay in the range of 216 to 218 °C. In addition, the half-maximal inhibitory concentration (IC50) in data set [1] (Plasmodium falciparum) was determined as 500 nM. The molecule also displayed a solubility at 20 h in data set [2] of 130 µM (≈ 70.5 µg/mL). Besides, in data set [3], the IC50 stood at 22400 nM and the “SI (selectivity index)” value came to 45.2.
Take `COc1ccc(/C=C/C(=O)c2ccc(S(=O)(=O)NCCNc3ccnc4cc(Cl)ccc34)cc2)cc1OC` [Compound 19, (E)-N-(2-((7-chloroquinolin-4-yl)amino)ethyl)-4-(3-(3,4-dimethoxyphenyl)acryloyl)benzenesulfonamide]: the melting point was in the range of 223 to 225 °C. Moreover, the IC50 in data set [1] (Plasmodium falciparum) turned out to be 330 nM. For the same molecule, in data set [3], inhibition was half-maximal at 45100 nM (IC50) and the “SI (selectivity index)” value amounted to 136.7.
Taken in the same sequence, the figures for `O=C(/C=C/c1cc(F)ccc1F)c1ccc(S(=O)(=O)NCCCNc2ccnc3cc(Cl)ccc23)cc1` [Compound 20, (E)-N-(3-((7-chloroquinolin-4-yl)amino)propyl)-4-(3-(2,5-difluorophenyl)acryloyl)benzenesulfonamide] were 219 to 221 °C, 790 nM, 43700 nM and 55.3.
The corresponding values for `O=C(/C=C/c1ccc(OC(F)(F)F)cc1)c1ccc(S(=O)(=O)NCCCNc2ccnc3cc(Cl)ccc23)cc1` [Compound 27, (E)-N-(3-((7-chloroquinolin-4-yl)amino)propyl)-4-(3-(4-(trifluoromethoxy)phenyl)acryloyl)benzenesulfonamide] are 223 to 225 °C, 510 nM, 44000 nM and 86.3.
The molecule `CC[C@H]1CN2CCc3cc(OC)c(OC)cc3[C@@H]2C[C@@H]1C[C@H]1NCCc2cc(OC)c(OC)cc21` [Emetine, emetine, reference compound] had an IC50 in data set [3] of 3.4 nM.
For the molecule “(E)-N-(2-((7-chloroquinolin-4-yl)amino)ethyl)-4-(3-ferrocenyl)acryloyl)benzenesulfonamide [Compound 23]”, the IC50 in data set [1] turned out to be 1530 nM.
